The values that follow come from patent EP0742215A1, “Cillianon, antibiotic from penicillin spe., and chemical derivatives thereof, method for their preparation and application” (HOECHST AKTIENGESELLSCHAFT, priority 1995, dated 1996).

For orientation: IC50 means the concentration at which inhibition is half-maximal.

In data set [1] the target is T1, humanen IL-4 Rezeptor (huIL-4R/Fc) (Homo sapiens, UniProt P24394).
T1 construct: die aus der extrazellulären Region von normalerweise membranständigen Rezeptoren bestehen
T1 sequence (P24394 26-232 limits assumed): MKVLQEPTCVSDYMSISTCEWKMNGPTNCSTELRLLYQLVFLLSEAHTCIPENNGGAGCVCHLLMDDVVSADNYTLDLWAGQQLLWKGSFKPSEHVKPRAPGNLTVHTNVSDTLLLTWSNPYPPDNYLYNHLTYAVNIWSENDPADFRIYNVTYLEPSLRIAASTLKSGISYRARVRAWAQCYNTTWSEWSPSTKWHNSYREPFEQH
The data set can be described thus: Cell-free huIL-4 binding assay (IL-4 receptor test, ELISA with receptor/Fc fusion protein and biotinylated ligand). The settings on record: huIL-4R/Fc 500 ng/ml; biotinylated huIL-4 100 ng/ml; 1 h room temperature; PBSA with 5 % DMSO; Abbildung 3. An excerpt: Aus der EP 488 170 A1 sind zellfreie Bindungsteste bekannt. Für ihre Durchführung werden rekombinante chimäre Proteine verwendet, die aus der extrazellulären Region von normalerweise membranständigen Rezeptoren bestehen, an deren Carboxyterminus die Fc-Region einer schweren Immunglobulinkette bestehend aus Hinge-, CH2- und CH3-Domäne fusioniert wurde. Diese sogenannten Rezeptor/Fc-Fusionsproteine können unter Erhalt der spezifischen Rezeptorbindungsaktivität an Festphasen gebunden werden, die beispielsweise mit monoklonalen Antikörpern gerichtet gegen den Fc-Teil vorbeschichtet wurden. Als Festphase wurden für dieses Beispiel ®Nunc Typ B ELISA-Platten verwendet. Rezeptor/Fc-Fusionsproteine gelöst in PBS enthaltend 10 mg/ml BSA (PBSA) wurden an diese vorbehandelten Platten gebunden (huIL-4R/Fc: 500 ng/ml; muIL-4R/Fc: 250 ng/ml; huIL-1R/Fc: 125 ng/ml; 1 h bei Raumtemperatur). Nach Waschen wurden die Peptide beziehungsweise die jeweiligen spezifischen unmarkierten Liganden (huIL-4R/Fc: huIL-4; muIL-4R/Fc: muIL-4; huIL-1R/Fc:huIL-1ra) in variierenden Konzentrationen und danach die spezifischen Liganden in biotinylierender Form in einer festen Konzentration zugegeben (100 ng/ml). Die Inkubation erfolgte 1 h bei Raumtemperatur in PBSA enthaltend 5 % DMSO. Nach Waschen erfolgte eine Inkubation mit Streptavidin/Peroxidase (Amersham, 1:2000 in PBSA) für 20 min bei Raumtemperatur. […]
In general terms: ELISA stands for enzyme-linked immunosorbent assay.

Data set [2] is described as follows: Solubility (physicochemical properties, Table 1). The note with it: in Methanol, Acetonitril, Chloroform und Benzol. The source says:
(§1) Die physikalisch-chemisch sowie spektroskopischen Eigenschaften von Cillianon lassen sich wie folgt zusammenfassen: Tabelle 1

The nature of data set [3]: Stability (physicochemical properties, Table 1).
Description: as §1

As for `Cc1cc(O)c2c3c(c(O)c4c(c13)OC(C)C4(C)C)C(=O)C(O)(O)C2=O` (centres unmarked) [Cillianon], the IC50 in data set [1] was 55.8 µM. For the same compound, the Löslichkeit entry in data set [2] is listed as “lösliche”. The Stabilität entry was “stabil” in data set [3] (im sauren Milieu), “unbeständig” in data set [3] (in wässrigem Alkali) and “unbeständig” in data set [3] (unter Lichteinwirkung).
